Key:
α-synuclein = biological target: T1, α-synuclein (Homo sapiens, UniProt P37840); experiment: Detection of the ability of compounds to inhibit α-synuclein self-aggregation by HPLC; format: biochemical; conditions: test compound 200 μg/mL, α-synuclein 250 μg/ml, 37° C., 9 days; HPLC peak area of α-synuclein multimers vs model group; read-out: inhibition rate (%)
T1 construct: purchased Sino Biological
Experimental: The test compound (for poorly soluble compounds, dissolve with an appropriate amount of DMSO first) and fresh α-synuclein monomers (purchased from Sino Biological) were added to pure water to a final protein concentration of 250 μg/ml, and the concentration of the test compound was 200 μg/mL, followed by incubation at 37° C. for 9 days. The peak area of α-synuclein multimers after incubation was detected by HPLC and the inhibition rate was calculated. […] Inhibition rate=(peak area of model group−peak area of example group)/peak area of model group×100%.

[1] = Determination of half-life in C57BL/6 mice; format: in vivo; conditions: mouse, 2 mg/kg; male C57BL/6 mice, intravenous, 2 mpk, plasma
Experimental: C57BL/6 mice (male) were selected, and the compound of the present invention was intravenously administered at a dose of 2 mpk, About 0.03 mL of whole blood was collected from the mouse orbital venous plexus at 0 h before administration, 0.0833, 0.25, 0.5, 1, 2, 4, 6, 8 and 24 h after administration. The blood was placed in a centrifuge tube containing EDTA-K2 anticoagulant, and placed in crushed ice after collection. Centrifuge at 2000 g and 4° C. for 10 min within 0.5 hours, and 10 μL of plasma was quantitatively divided and placed in another clean centrifuge tube, placed in a −20° C. refrigerator, and the blood drug concentration was determined by LC-MS/MS method.

[2] = Determination of brain/plasma ratio; format: in vivo; conditions: mouse, male C57BL/6 mice, oral 10 mg/kg, ratio of average drug concentration in brain tissue to plasma
Experimental: Male C57BL/6 mice were used as research subjects, and brain perfusion technology was used to investigate the pharmacokinetic characteristics of the compound of the present invention transported through the blood-brain barrier, and the drug concentrations in the blood and brain tissue samples of mice after 0.25 h, 1 h, 4 h and 8 h were detected, and the ratio of the average drug concentrations in brain tissue and plasma was calculated.
Oral administration solution (1.000 mg·ml^−1) of the compound of the present invention was prepared:
Weigh 3.116 mg of the compound and place it in an EP tube, then add DMS 0.156 mL, Solutol 0.312 mL and ultrapure water 2.648 mL (the volume ratio of the three is 5:10:85, v:v:v), vortex ultrasound to fully dissolve it, and the final actual concentration is 1.000 mg·mL-1 of the clear administration solution.
C57BL/6 mice (male), purchased from Sibeifu (Beijing) Biotechnology Co., Ltd., experimental animal production license number: SCXK (Beijing) 2019-0010.
Fasting: Overnight fasting, no water withdrawal, feed provided 4 hours after medication.
Select qualified healthy C57BL/6 mice, 3 per group. After oral administration (10 mg/kg), about 150 μL of whole blood was collected from the orbital venous plexus of mice at 0.25 h, 1 h, 4 h and 8 h after medication and placed in a centrifuge tube containing EDTA-K2 anticoagulant. After administration, the mice were anesthetized about 1 minute before the scheduled time point, and brain perfusion was performed at 0.25 h, 1 h, 4 h and 8 h after administration. After perfusion, the mouse brain tissue samples were dissected with ophthalmic scissors and ophthalmic forceps, and the remaining blood on the tissue surface was immediately rinsed with ultrapure water within 5 min, wiped dry, weighed, and 4 times the volume of acetonitrile-water solution (10:90, v:v) was added and homogenized, and then the homogenate was placed in a −20° C. refrigerator for testing. The collected samples were placed in an ice bath during the entire experimental operation.
According to the time points specified in the above experimental protocol, about 150 μL of whole blood was collected from the orbital venous plexus of C57BL/6 mice after administration and placed in a 1.5 mL centrifuge tube containing EDTAN-K2. The collected whole blood was centrifuged at 2000 g, 4° C. for 10 min, and all plasma was divided and placed in another clean centrifuge tube, and then placed in a −20° C. refrigerator for testing.
Adjust the peristaltic pump device to ensure that it works normally, the liquid flows out smoothly and stably, and there is no air in the flow path. Anesthetize the mice after administration with a mixed anesthetic of 70% CO2 and 30% O2, After the animal is fully anesthetized, quickly open the chest cavity with surgical scissors to expose the heart. […] Turn on the peristaltic pump switch and perfuse for 2-5 minutes. The perfusion fluid is 100 U/1000 mL heparin sodium saline. After the perfusion is completed, use ophthalmic scissors and ophthalmic forceps to dissect the mouse brain tissue sample, immediately rinse the remaining blood on the tissue surface with ultrapure water within 5 minutes, wipe dry, weigh, add 4 times the volume of acetonitrile-water solution (10:90, v:v) and homogenize, and then place the homogenate in a −20° C. refrigerator for testing.
Calculate the ratio of the average drug concentration in brain tissue to that in plasma, i.e., the brain/plasma ratio.

| inhibition at 200 µg/mL (α-synuclein) | half-life [1] | Kp at 4 h [2] | Structure (SMILES) |
| --- | --- | --- | --- |
| 98.3% | 2.21 h | 1.53 | CCCCC(Cc1c[nH]c2ccccc12)NC(=O)c1cc2ccc(N3CCN(C)CC3)cc2s1 (racemic) [Example 1, N-(1-(1H-indol-3-yl)hexane-2-yl)-6-(4-methylpiperazin-1-yl)benzo[b]thiophene-2-carboxamide] |
| – | 0.39 h | 0.35 | CCCCC(Cc1c[nH]c2ccccc12)NC(=O)c1cnc(N2CCN(C)CC2)s1 (stereo not drawn) [Comparative Example 1, reference compound] |
| 95.3% | 1.46 h | 0.38 | CCCCC(Cc1c[nH]c2ccccc12)NC(=O)c1cc2ccc(N3CCN(C4CC4)CC3)cc2s1 (stereo not drawn) [Example 3, N-(1-(1H-indol-3-yl)hexane-2-yl)-6-(4-cyclopropylpiperazin-1-yl) benzo[b]-thiophene-2-carboxamide] |
| 78.3% | – | – | CN(C)CCC(Cc1c[nH]c2ccccc12)NC(=O)c1cc2ccc(N3CCN(C)CC3)cc2s1 (stereo not drawn) [Example 38] |
| 92.6% | – | – | CCOCC(Cc1c[nH]c2ccccc12)NC(=O)c1cc2ccc(N3CCN(C)CC3)cc2s1 (stereo not drawn) [Example 39, N-(1-ethoxy-3-(1H-indol-3-yl)propane-2-yl)-6-(4-methylpiperazin-1-yl) benzo[b]-thiophene-2-carboxamide] |
| 82.5% | – | – | CCOCCC(Cc1c[nH]c2ccccc12)NC(=O)c1cc2ccc(N3CCN(C)CC3)cc2s1 (stereo not drawn) [Example 41, N-(4-ethoxy-1-(1H-indol-3-yl)butane-2-yl)-6-(4-methylpiperazin-1-yl) benzol[b]-thiophene-2-carboxamide] |
| 97.2% | 1.17 h | 2.05 | CCCC[C@@H](Cc1c[nH]c2ccccc12)NC(=O)c1cc2ccc(N3CCN(C)CC3)cc2s1 [Example 42, (S)—N-(1-(1H-indol-3-yl)hexane-2-yl)-6-(4-methylpiperazin-1-yl) benzo[b]thiophene-2-carboxamide] |
| 98.6% | 1.32 h | 1.7 | CCCC[C@H](Cc1c[nH]c2ccccc12)NC(=O)c1cc2ccc(N3CCN(C)CC3)cc2s1 [Example 43, (R)—N-(1-(1H-indol-3-yl)hexane-2-yl)-6-(4-methylpiperazin-1-yl) benzo[b]thiophene-2-carboxamide] |
| 89.7% | – | – | CCCCC(Cc1c[nH]c2ccccc12)NC(=O)c1cc2ccc(N3CCN(S(=O)(=O)C4CC4)CC3)cc2s1 (stereo not drawn) [Example 44, 6-[4-(Cyclopropanesulfonyl)piperazine-1-yl]-N-[1-(1H-indol-3-yl)hexane-2-yl]-1-benzothiophene-2-carboxamide] |
| 82.3% | – | – | CCCCC(Cc1c[nH]c2ccccc12)NC(=O)c1cc2ccc(N3CCN(S(C)(=O)=O)CC3)cc2s1 (stereo not drawn) [Example 45, N-[1-(1H-indol-3-yl)hexane-2-yl]-6-(4-methylsulfonylpiperazine-1-yl)-benzothiophene-2-carboxamide] |
| 78.9% | – | – | CCCCC(Cc1c[nH]c2ccccc12)NC(=O)c1cc2ccc(N3CCN(C)C(=O)C3)cc2s1 (stereo not drawn) [Example 46, N-[1-(1H-indol-3-yl)hexane-2-yl]-6-(4-methyl-3-oxopiperazin-1-yl)-benzothiophene-2-carboxamide] |
| 73.5% | – | – | CCCCC(Cc1c[nH]c2ccccc12)NC(=O)c1cc2ccc(N3CCN(C)CC3=O)cc2s1 (stereo not drawn) [Example 47, N-[1-(1H-indol-3-yl)hexane-2-yl]-6-(4-methyl-2-oxypiperazin-1-yl)-1-benzothiophene-2-carboxamide] |
| 96.5% | – | – | CCCCC(Cc1c[nH]c2ccccc12)NC(=O)c1cc2ccc(N3CCC(C)(O)CC3)cc2s1 (stereo not drawn) [Example 48, N-(1-(1H-indol-3-yl)hexane-2-yl)-6-(4-hydroxy-4-methylpiperidin-1-yl) benzo[b]-thiophene-2-carboxamide] |
| 92.9% | – | – | CCCCC(Cc1c[nH]c2ccccc12)NC(=O)c1cc2ccc(N3CC(C)(O)C3)cc2s1 (stereo not drawn) [Example 49, N-(1-(1H-indol-3-yl)hexane-2-yl)-6-(3-hydroxy-3-methylazetidine-1-yl) benzo[b]-thiophene-2-carboxamide] |
| 95.7% | – | – | CCCCC(Cc1c[nH]c2ccccc12)NC(=O)c1cc2ccc(N3CC4(C3)CC(C)(O)C4)cc2s1 (stereo not drawn) [Example 50, N-(1-(1H-indol-3-yl)hexane-2-yl)-6-(6-hydroxy-6-methyl-2-azaspiro [3.3]heptane-2-yl) benzo[b]thiophene-2-carboxamide] |
| 90.3% | – | – | CCCCC(Cc1c[nH]c2ccccc12)NC(=O)c1cc2ccc(N3CCC(C)(O)C3)cc2s1 (stereo not drawn) [Example 51, N-(1-(1H-indol-3-yl)hexane-2-yl)-6-(3-hydroxy-3-methylpyrrolidin-1-yl) benzo[b]-thiophene-2-carboxamide] |

| Structure (SMILES) | inhibition at 200 µg/mL (α-synuclein) | half-life [1] | Kp at 4 h [2] |
| --- | --- | --- | --- |
| CC/C=C/C(Cc1c[nH]c2ccccc12)NC(=O)c1cc2ccc(N3CCN(C)CC3)cc2s1 (stereo not drawn) [Example 37, (E)-N-(1-(1H-indol-3-yl)-3-hexene-2-yl)-6-(4-methylpiperazin-1-yl) benzo-[b]thiophene-2-carboxamide] | 86.7% | – | – |
| CC(C)/C=C/C(Cc1c[nH]c2ccccc12)NC(=O)c1cc2ccc(N3CCN(C)CC3)cc2s1 (stereo not drawn) [Example 40, (E)-N-(1-(1H-indol-3-yl)-S-methyl-3-hexene-2-yl)-6-(4-methylpiperazin-yl) benzo[b]-thiophene-2-carboxamide] | 76.8% | – | – |
